Results as given in US11999806B2, “Broad-spectrum polypeptide against enterovirus and application thereof” (WUHAN INSTITUTE OF VIROLOGY, CHINESE ACADEMY OF SCIENCES, priority 2018, dated 2024).
pIC50: −log10 of the molar value. Values joined by “and” are separate entries in the source; they are usually repeats but may differ in a detail not shown here. Identical values can stand only once. Non-standard residues stand in square brackets, D forms with d. Residues, ends and D or L forms follow the SMILES beside them. No end group written: not given here.

Experiments:
[1] = tested on: CVA6; experiment: Anti-CVA6 effect in Vero cells, qRT-PCR; assay type: cell-based, Coxsackievirus A6; details: for Virus inhibition rate (%): CVA6 MOI 0.01, Vero cells, 24 h, qRT-PCR
Protocol: • (1) Vero cells were plated in a 24-well cell plate. • (2) After the cells reached 70%-80% confluence, the MEM medium containing 10% serum was replaced with a MEM medium containing 2% serum and CVA6 virus, 0.5 ml per well. MOI of the virus was 0.01. The wells without CVA6 virus was set as control group. • (3) After 1 h, […], respectively. • (4) Samples were collected 24 hours after virus infection, and RNA was extracted with total RNA extraction kit as follows. • (5) The supernatant in the wells was discarded, then 350 μl of TRK Lysis Buffer was added to each well and the plate was shaken on the shaker for 5 minutes. • (6) 350 μl of 70% ethanol (DEPC-treated) was added to the well and the plate was shaken on the shaker for 5 minutes. • (7) The mixture in the well was transferred to a RNA extraction column and centrifuged at 12000 g for 1 min. • (8) The solution collected in the recovery tube was added back to the column and centrifuged at 12000 g for 1 min. • (9) RNA washing buffer 1 was added to the column and centrifuged at 12,000 g for 30 s. • (10) RNA washing buffer 2 was added to the column and centrifuged at 12,000 g for 1 min. • (11) Step (10) was repeated once. • (12) The column was centrifuged at 12,000 g for 2 min to completely remove residual RNA washing buffer. • (13) 50 μl DEPC-treated H2O was added to the column and centrifuge at 12,000 g for 2 min. • (14) 2 μl RNA sample was used according to one step qRT-PCR kit for fluorescence quantification experiment.

[2] = Cytotoxicity by CCK-8 in Vero cells; assay type: cell-based; details: 24 h, read-out: Cell viability (%)
Protocol: (§1) The experiment was performed as follows. • (1) Vero cells were plated in a 96-well plate at 100 μl per well. • (2) After the cells reached 70%-80% confluence, the MEM medium containing 10% serum was replaced with a MEM medium containing 2% serum. Then, polypeptide BP8, BP10 or BP15 was added to generate gradient concentrations of […], […], 12.5 μM, 25 μM, 50 μM, 100 μM, and 200 μM (final concentrations), respectively. • (3) The samples were collected 24 hours after the addition of the polypeptide, and 10 μl of live cell detection reagent CCK-8 was added to each well and mixed well. • (4) The plate was placed at 37° C. for 4 h. • (5) The absorbance value at OD450 was measured with a microplate reader.

[3] = tested on: Vero cells; experiment: Cytotoxicity by CCK-8 in Vero cells; assay type: cell-based; details: for Cell viability (%): 24 h
Protocol: as §1

[4] = tested on: CVB5; experiment: Anti-CVB5 effect in RD cells, qRT-PCR; assay type: cell-based, Coxsackievirus B5; details: Example 20, read-out: IC50 against CVB5
Protocol: • (1) […] were plated in a 24-well cell plate. • (2) After the cells reached 70%-80% confluence, the MEM medium containing 10% serum was replaced with a MEM medium containing 2% serum (0.5 ml/well).

[5] = tested on: CVB3; experiment: Anti-CVB3 effect in Vero cells, qRT-PCR; assay type: cell-based, Coxsackievirus B3; details: text of Example 21, read-out: IC50 against CVB3
Protocol: • (1) Vero cells were plated in a 24-well cell plate. • (2) After the cells reached 70%-80% confluence, the MEM medium containing 10% serum was replaced with a MEM medium containing 2% serum and CVB3 virus, 0.5 ml per well. MOI of the virus was 0.01. […]

## CC(=O)N[C@H](CCCNC(=N)N)C(=O)N[C@H](CS)C(=O)N[C@H](Cc1ccc(O)cc1)C(=O)N[C@H](CCC(N)=O)C(=O)N[C@H](CCCNC(=N)N)C(=O)N[C@@H](C(=O)N[C@H](CCC(=O)O)C(=O)N[C@H](CCC(=O)O)C(=O)N1CCC[C@@H]1C(=O)N1CCC[C@@H]1C(=O)N[C@H](CCCNC(=N)N)C(=O)N[C@H](CCCNC(=N)N)C(=O)N[C@H](CCCNC(=N)N)C(=O)N[C@H](CCC(N)=O)C(=O)N[C@H](CCCNC(=N)N)C(=O)N[C@H](CCCNC(=N)N)C(=O)N[C@H](CCCCN)C(=O)N[C@H](CCCCN)C(=O)N[C@H](CCCNC(=N)N)C(=O)NCC(=O)N[C@H](Cc1ccc(O)cc1)C(N)=O)C(C)C [ER-DRI] (Ac-[dR][dC][dY][dQ][dR][dV][dE][dE][dP][dP][dR][dR][dR][dQ][dR][dR][dK][dK][dR]G[dY]-NH2)
[1]; 0.625 μM
  Virus inhibition rate (%): 71.8% and 74.9% and 67.5%
[1]; 2.15 μM
  Virus inhibition rate (%): 72.6% and 85.3% and 90.4%
[1]; 2.5 μM
  Virus inhibition rate (%): 91.3% and 93.4% and 91.7%
[1]; 5 μM
  Virus inhibition rate (%): 94.3% and 94.9% and 96.4%
[1]; 10 μM
  Virus inhibition rate (%): 91.4% and 97.8% and 97.9%
[1]; Vero cells
  effect on CVA6 replication, in words: able to inhibit the replication of CVA6
[1]; Vero cells, read-out: IC50 against CVA6
  pIC50: > 6.20

## YGRKKRRQRRRGSGEAVREYCK [BP8]
[2]; 3.0625 μM
  viability at 24 h, 3.0625 µM: 103%
[2]; 6.125 μM
  viability at 24 h, 6.125 µM: 101%
[2]; 12.5 μM
  viability at 24 h, 12.5 µM: 95.5%
[2]; 25 μM
  viability at 24 h, 25 µM: 96.6%
[2]; 50 μM
  viability at 24 h, 50 µM: 94.4%
[2]; 100 μM
  viability at 24 h, 100 µM: 99.7%
[2]; 200 μM
  viability at 24 h, 200 µM: 87.2%
[3]; 3.0625 μM
  Cell viability (%): 105.2007% and 108.7417%
[3]; 6.125 μM
  Cell viability (%): 111.3814% and 119.3004%
[3]; 12.5 μM
  Cell viability (%): 106.8102% and 109.1924%
[3]; 25 μM
  Cell viability (%): 99.47% and 113.6348%
[3]; 50 μM
  Cell viability (%): 108.2266% and 112.4759%
[3]; 100 μM
  Cell viability (%): 96.7% and 97.35%
[3]; 200 μM
  Cell viability (%): 92.0023% and 92.52%
[3]; CCK-8, 24 h
  cytotoxicity, result in words: not toxic to cells within 200 μM
[4]
  pIC50: 5.81
[5]
  pIC50: 5.38
